Data from ChEMBL document CHEMBL2401710, “Design, synthesis and structure-activity relationships of zwitterionic spirocyclic compounds as potent CCR1 antagonists” (Bioorg Med Chem Lett, 2013).

Experiments:
[1] = Antiplatelet activity in human platelet-rich plasma assessed as ADP-induced platelet aggregation at 10 uM relative to control; type: functional
[2] = Antiplatelet activity in human platelet-rich plasma assessed as inhibition of ADP-induced platelet aggregation; type: functional, cell-free
[3] = Half life in rat at 5 mg/kg, iv; type: ADME, organism-based; set-up: dose 5 mg/kg, route intravenous; details: in vivo

**Q.** With `CC(C)(C)c1ccccc1Oc1ncccc1Nc1ncc(-c2ccccc2)s1` as the compound, how does the Activity [1] read?
**A.** 87%

**Q.** With `CCc1nc(Nc2cccnc2Oc2ccccc2C(C)(C)C)sc1-c1ccccc1` as the compound, how does the Activity [1] read?
**A.** 78%

**Q.** For `CC(C)(C)c1ccccc1Oc1ncccc1Nc1nc(C(C)(C)C)c(-c2ccccc2)s1`, which Activity [1] is on record?
**A.** 86%

**Q.** Which IC50 [2] does the source give for `CC(C)(C)c1ccccc1Oc1ncccc1Nc1nc(C(F)(F)F)c(-c2ccccc2)s1` here?
**A.** 5.2 µM

**Q.** What about the Activity [1] of the same compound?
**A.** 61%

**Q.** For `CC(C)(C)c1ccccc1Oc1ncccc1Nc1nc(C(C)(C)CC(=O)O)c(-c2ccccc2)s1`, which Activity [1] is on record?
**A.** 89%

**Q.** With `CN(C)C(=O)c1nc(Nc2cccnc2Oc2ccccc2C(C)(C)C)sc1-c1ccccc1` as the compound, how does the Activity [1] read?
**A.** 100%

**Q.** With `Cc1sc(Nc2cccnc2Oc2ccccc2C(C)(C)C)nc1C(F)(F)F` as the compound, how does the Activity [1] read?
**A.** 96%

**Q.** For `CCOC(=O)c1sc(Nc2cccnc2Oc2ccccc2C(C)(C)C)nc1C(F)(F)F`, which Activity [1] is on record?
**A.** 50%

**Q.** Which Activity [1] does the source give for `CC(C)(C)c1ccccc1Oc1ncccc1Nc1nc(C(F)(F)F)c(C#N)s1` here?
**A.** 101%

**Q.** Which Activity [1] does the source give for `Cc1noc(-c2sc(Nc3cccnc3Oc3ccccc3C(C)(C)C)nc2C(F)(F)F)n1` here?
**A.** 56%

**Q.** With `Cc1ccccc1-c1sc(Nc2cccnc2Oc2ccccc2C(C)(C)C)nc1C(F)(F)F` as the compound, how does the Activity [1] read?
**A.** 54%

**Q.** With `Cc1ccc(-c2sc(Nc3cccnc3Oc3ccccc3C(C)(C)C)nc2C(F)(F)F)cc1` as the compound, how does the Activity [1] read?
**A.** 32%

**Q.** Which Activity [1] does the source give for `CC(C)(C)c1ccccc1Oc1ncccc1Nc1nc(C(F)(F)F)c(-c2ccccc2F)s1` here?
**A.** 41%

**Q.** Which Activity [1] does the source give for `COc1cccc(-c2sc(Nc3cccnc3Oc3ccccc3C(C)(C)C)nc2C(F)(F)F)c1` here?
**A.** 41%

**Q.** With `COc1ccc(-c2sc(Nc3cccnc3Oc3ccccc3C(C)(C)C)nc2C(F)(F)F)cc1` as the compound, how does the Activity [1] read?
**A.** 30%

**Q.** For `CC(C)(C)c1ccccc1Oc1ncccc1Nc1nc(C(F)(F)F)c(-c2ccc(OC(F)(F)F)cc2)s1`, which Activity [1] is on record?
**A.** 85%

**Q.** For `CC(C)(C)c1ccccc1Oc1ncccc1Nc1nc(C(F)(F)F)c(-c2ccc(C#N)cc2)s1`, which Activity [1] is on record?
**A.** 79%

**Q.** Which Activity [1] does the source give for `CC(C)(C)c1ccccc1Oc1ncccc1Nc1nc(C(F)(F)F)c(-c2ccccc2O)s1` here?
**A.** 99%

**Q.** For `CC(C)(C)c1ccccc1Oc1ncccc1Nc1nc(C(F)(F)F)c(-c2cccc(O)c2)s1`, which Activity [1] is on record?
**A.** 98%

**Q.** Which half-life [3] does the source give for `CN(C)CC(C)(C)COc1cccc(-c2sc(Nc3cccnc3Oc3ccccc3C(C)(C)C)nc2C(F)(F)F)c1` here?
**A.** 2.1 h

**Q.** What about the Activity [1] of the same compound?
**A.** 17%
